Reference: patent US20250360109A1, “COMPOSITIONS AND METHODS FOR TREATING DEPRESSION IN FEMALES” (priority 2022, published 2025)

How the values were obtained:
[1] = test system: adult subjects with major depressive disorder (MDD); experiment: Phase 2 placebo-controlled study in MDD, Quality of Life Enjoyment and Satisfaction Questionnaire-Short Form (Q-LES-Q-SF); format: in vivo, human; details: mITT; for Change from Baseline, Q-LES-Q-SF Total at Week 2, LSM Difference (95% CI) / Change from Baseline, Q-LES-Q-SF Total at Week 4, LSM Difference (95% CI): 20 mg/day vs Placebo; for Change from Baseline, Q-LES-Q-SF Total at Week 2, Mean (SD) / Change from Baseline, Q-LES-Q-SF Total at Week 2, Median / Change from Baseline, Q-LES-Q-SF Total at Week 4, Mean (SD) / Change from Baseline, Q-LES-Q-SF Total at Week 4, Median / Q-LES-Q-SF Total at Week 2, Mean (SD) / Q-LES-Q-SF Total at Week 2, Median / Q-LES-Q-SF Total at Week 4, Mean (SD) / Q-LES-Q-SF Total at Week 4, Median: 20 mg/day
Protocol: (§1) A Phase 2, multicenter, double-blind, randomized, placebo-controlled study of the safety and efficacy of SP-624 in the treatment of adult subjects with major depressive disorder (MDD) as defined by the Diagnostic and Statistical Manual of Mental Disorders, Fifth Edition (DSM-5) was carried out. Following the successful completion of a Screening Phase, subjects were randomized to one of two treatment groups in a 1:1 ratio and received Compound 1 (SP-624) or placebo over a treatment period of four weeks (Treatment Group #1: SP-624 20 mg/day; Treatment Group #2: Placebo).
(§2) Prior to initiating the 4-week treatment period, subjects completed a Screening/Baseline period of up to 28 days, during which time all screening assessments were performed, and any current depression medications discontinued. All screening assessments were completed before discontinuing any current depression medications. Subjects returned for a Baseline Visit to complete efficacy and safety assessments. During the treatment period, subjects returned to the investigative site to complete efficacy and safety assessments at the end of Weeks 1, 2, 3, and 4. After the final dose of study drug, subjects completed a follow-up period of two weeks and returned at the end of Weeks 5 and 6. Subjects may be treated with anti-depressant medications according to physician recommendations after completion of the Week 5 Visit.
(§3) Each dose of Compound 1 was supplied as two capsules, each containing 10 mg of active pharmaceutical ingredient (API). Matching placebo capsules identical in shape and color to the active capsules were used.
(§4) Secondary efficacy endpoints included: • Change from Baseline to Weeks 1, 2, and 3 in MADRS total score, • Change from Baseline to Weeks 1, 2, 3, and 4 in Clinical Global Impression-Severity (CGI-S) total score, • Change from Baseline to Week 5 and change from Week 4 to Week 5 in MADRS total score and CGI-S total score, • Change from Baseline to Week 2 and Week 4 in the 17-item Hamilton Depression Rating Scale (HAM D-17) total score, • Change from Baseline to Week 2 and Week 4 in the Sheehan Disability Scale (SDS), • Change from Baseline to Week 2 and Week 4 in the Quick Inventory of Depressive Symptomology-Self Report (QIDS-SR), and • Change from Baseline to Week 2 and Week 4 in the Quality of Life Enjoyment and Satisfaction Questionnaire-Short Form (Q-LES-Q-SF).

[2] = test system: adult subjects with major depressive disorder (MDD); experiment: Phase 2 placebo-controlled study in MDD, Clinical Global Impression-Severity (CGI-S) total score; format: in vivo, human; details: mITT; for Change from Baseline, CGI-S Total at Week 1, LSM Difference (95% CI) / Change from Baseline, CGI-S Total at Week 2, LSM Difference (95% CI) / Change from Baseline, CGI-S Total at Week 3, LSM Difference (95% CI) / Change from Baseline, CGI-S Total at Week 4, LSM Difference (95% CI): 20 mg/day vs Placebo
Protocol: as §1, §2, §3, §4

Compound: COC1=CC(=O)C[C@@H](C)[C@]12Oc1c(Cl)c(-c3nnc(C)o3)cc(OC)c1C2=O [SP-624, (2S,6′R)-7-Chloro-2′,4-dimethoxy-6′-methyl-6-(5-methyl-1,3,4-oxadiazol-2-yl)-3H-spiro[1-benzofuran-2,1′-cyclohex [2]ene]-3,4′-dione]
- Change from Baseline, Q-LES-Q-SF Total at Week 2, LSM Difference (95% CI) ([1]; Female): 1.1 (−1.8, 3.9)
- Change from Baseline, Q-LES-Q-SF Total at Week 4, LSM Difference (95% CI) ([1]; Female): 3.3 (−0.3, 6.8)
- Change from Baseline, Q-LES-Q-SF Total at Week 2, Mean (SD) ([1]; Female): 7.8 (10.32)
- Change from Baseline, Q-LES-Q-SF Total at Week 2, Median ([1]; Female): 6
- Change from Baseline, Q-LES-Q-SF Total at Week 4, Mean (SD) ([1]; Female): 11.4 (14.11)
- Change from Baseline, Q-LES-Q-SF Total at Week 4, Median ([1]; Female): 10
- Q-LES-Q-SF Total at Week 2, Mean (SD) ([1]; Female): 59.2 (11.32)
- Q-LES-Q-SF Total at Week 2, Median ([1]; Female): 59
- Q-LES-Q-SF Total at Week 4, Mean (SD) ([1]; Female): 62.1 (13.87)
- Q-LES-Q-SF Total at Week 4, Median ([1]; Female): 59
- Change from Baseline, Q-LES-Q-SF Total at Week 2, LSM Difference (95% CI) ([1]; Male): −2.2 (−6.7, 2.3)
- Change from Baseline, Q-LES-Q-SF Total at Week 4, LSM Difference (95% CI) ([1]; Male): −1.3 (−6.4, 3.7)
- Change from Baseline, Q-LES-Q-SF Total at Week 2, Mean (SD) ([1]; Male): 5.5 (10.39)
- Change from Baseline, Q-LES-Q-SF Total at Week 2, Median ([1]; Male): 4
- Change from Baseline, Q-LES-Q-SF Total at Week 4, Mean (SD) ([1]; Male): 7.1 (11.54)
- Change from Baseline, Q-LES-Q-SF Total at Week 4, Median ([1]; Male): 6
- Q-LES-Q-SF Total at Week 2, Mean (SD) ([1]; Male): 59.5 (12.80)
- Q-LES-Q-SF Total at Week 2, Median ([1]; Male): 59
- Q-LES-Q-SF Total at Week 4, Mean (SD) ([1]; Male): 61.5 (12.26)
- Q-LES-Q-SF Total at Week 4, Median ([1]; Male): 61
- Change from Baseline, CGI-S Total at Week 1, LSM Difference (95% CI) ([2]; Female): −0.1 (−0.3, 0.1)
- Change from Baseline, CGI-S Total at Week 2, LSM Difference (95% CI) ([2]; Female): −0.3 (−0.5, 0.0)
- Change from Baseline, CGI-S Total at Week 3, LSM Difference (95% CI) ([2]; Female): −0.4 (−0.7, −0.1)
- Change from Baseline, CGI-S Total at Week 4, LSM Difference (95% CI) ([2]; Female): −0.5 (−0.8, −0.1)
- CGI-S Total at Week 1, Mean (SD) ([2]; Female, 20 mg/day): 4.0 (0.89)
- CGI-S Total at Week 1, Median ([2]; Female, 20 mg/day): 4
- CGI-S Total at Week 2, Mean (SD) ([2]; Female, 20 mg/day): 3.6 (0.97)
- CGI-S Total at Week 2, Median ([2]; Female, 20 mg/day): 4
- CGI-S Total at Week 3, Mean (SD) ([2]; Female, 20 mg/day): 3.4 (1.15)
- CGI-S Total at Week 3, Median ([2]; Female, 20 mg/day): 4
- CGI-S Total at Week 4, Mean (SD) ([2]; Female, 20 mg/day): 3.3 (1.20)
- CGI-S Total at Week 4, Median ([2]; Female, 20 mg/day): 3
- Change from Baseline, CGI-S Total at Week 1, Mean (SD) ([2]; Female, 20 mg/day): −0.5 (0.80)
- Change from Baseline, CGI-S Total at Week 1, Median ([2]; Female, 20 mg/day): 0
- Change from Baseline, CGI-S Total at Week 2, Mean (SD) ([2]; Female, 20 mg/day): −0.8 (0.96)
- Change from Baseline, CGI-S Total at Week 2, Median ([2]; Female, 20 mg/day): −1
- Change from Baseline, CGI-S Total at Week 3, Mean (SD) ([2]; Female, 20 mg/day): −1.1 (1.13)
- Change from Baseline, CGI-S Total at Week 3, Median ([2]; Female, 20 mg/day): −1
- Change from Baseline, CGI-S Total at Week 4, Mean (SD) ([2]; Female, 20 mg/day): −1.2 (1.14)
- Change from Baseline, CGI-S Total at Week 4, Median ([2]; Female, 20 mg/day): −1
- Change from Baseline, CGI-S Total at Week 1, LSM Difference (95% CI) ([2]; Male): 0.0 (−0.5, 0.4)
- Change from Baseline, CGI-S Total at Week 2, LSM Difference (95% CI) ([2]; Male): −0.1 (−0.5, 0.3)
- Change from Baseline, CGI-S Total at Week 3, LSM Difference (95% CI) ([2]; Male): 0.0 (−0.4, 0.4)
- Change from Baseline, CGI-S Total at Week 4, LSM Difference (95% CI) ([2]; Male): 0.2 (−0.3, 0.6)
- CGI-S Total at Week 1, Mean (SD) ([2]; Male, 20 mg/day): 3.9 (0.84)
- CGI-S Total at Week 1, Median ([2]; Male, 20 mg/day): 4
- CGI-S Total at Week 2, Mean (SD) ([2]; Male, 20 mg/day): 3.5 (1.18)
- CGI-S Total at Week 2, Median ([2]; Male, 20 mg/day): 4
- CGI-S Total at Week 3, Mean (SD) ([2]; Male, 20 mg/day): 3.4 (1.15)
- CGI-S Total at Week 3, Median ([2]; Male, 20 mg/day): 4
